# Experimental data as given in US20090246293A1 (priority 2008, published 2009).
# Where two headings read alike, the source gives them in different places.
# Experiments:
# [1] = test system: Pseudoperonospora cubensis; experiment: Drop-band treatment of cucumber leaves, then spray inoculation with zoospores (Examples 1-3); type: in vivo
# Procedure: The following examples were carried out on greenhouse and growth chamber experiments on cucumber plants. The cucumber plants were grown from seed in soil-free medium mix (Metro-Mix 360®) and maintained in a glasshouse with supplementary light sources to provide a 16 hour photoperiod at 24-29° C. until the plants had produced 1-2 true leaves. Plants were then trimmed to 1 true leaf, approximately 8 cm across by removing any additional leaves.
# Referring below to Table 1, Dithane M45 and Dithane OS are standard commercial formulations. Isovaleraldehyde loaded onto PergoPak was prepared using the following procedure: a mixture of 1.35 g of PergoPak M (polyurea), 0.15 g of isovaleraldehyde and 8 mL of ether was stirred at room temperature for 10 min. The mixture was then concentrated by rotatory evaporation at room temperature under a slight vacuum to provide a solid that was air dried for an hour at room temperature and then bottled. All treatments were prepared by adding the appropriate amount of each treatment to distilled water to give the desired concentration of active ingredient. Dithane® M45 suspensions were initially prepared via serial dilution. Mancozeb/isovaleraldehyde solutions were prepared by adding a prepared isovaleraldehyde solution to a prepared mancozeb suspension. All solutions were vortexed and sonicated prior to treatment application to ensure that they were homogenous.
# A sporangial suspension of Pseudoperonospora cubensis was made by collecting leaves with freshly sporulating lesions and washing them in distilled water, which was made up of equal volumes of chilled (4° C.) and tap distilled water (21° C.). The suspension was then left on the lab bench for 2 hours to allow the release of zoospores from the sporangia. After 2 hours the suspension was filtered through filter paper (“Whatman”, 12.5 cm, grade 113V) to remove any remaining sporangia and mycelial fragments. The zoospore concentration was determined and then adjusted to the desired concentration with distilled water.
# For each example described below, an area 5 cm wide by 1 cm deep was initially marked on each cucumber leaf by placing a mark in each corner of the area. This was repeated on four separate plants to give four replicates for each treatment. Ten 15 microlitre drops were then applied to each leaf in two 5 drop bands (1 cm between each drop) and allowed to dry overnight. Subsequently a zoospore suspension of Pseudoperonospora cubensis (30,000 zoospores/mL) was sprayed with a hand-atomiser to the entire leaf until run-off. Plants were placed in a dew room (22° C. and 99% RH) for 24 hours then maintained in a growth room with supplementary light sources to provide a 14 hour photoperiod at 18° C. and 70% RH until disease assessment.
# Assessment of the effectiveness of the treatment was done by visual infection within the banded area. The banded area was evaluated on a percentage scale (with 0% representing no infection and 100% representing infection of the entire area) after 5-7 days.
# [2] = test system: Phytophthora infestans (PHYTIN); type: in vivo; settings: for effect of Formulation I on the effectiveness of fungicides, PHYTIN: Table 20; for Reduction in percent disease, Formul. I / Reduction in percent disease, Formul. II: PHYTIN
# [3] = test system: Pseudoperonospora cubensis (PSPECU); settings: in vivo
# [4] = test system: Pseudoperonospora cubensis (PSPECU); experiment: Droplet application on cucumber leaf, growth chamber (Examples 5a-d); type: in vivo
# Procedure: Examples 5a through 5d were conducted in growth chambers on cucumber plants. Cucumbers (Cucumis sativus cv Bush Pickle Hybrid #901261) were grown from seed in 5 cm by 5 cm pots containing MetroMix™ growth medium (Scotts, Marysville, Ohio) and maintained in a glasshouse with supplementary light sources to provide a 14 hour photoperiod at 24-29° C. until the plants were in the 2-3 true leaf stage of growth and the oldest leaf was fully expanded.
# For examples 5a through 5d, described below, samples of mancozeb formulated as Dithane DG NT were dissolved in water to form a ½×dilution series. Mancozeb rates were 400, 200, 100 and 50 ppm. Samples of various aldehydes, amino acids, carboxylic acids, amines and alcohols were dissolved in acetone and then mixed with aqueous solutions of mancozeb. Attractant rates in the dilute solutions were 100, 200, 500 or 1000 ppm, depending on the experiment.
# Mixtures of attractant or attractant derivative plus mancozeb or mancozeb alone were applied to cucumber as a row of 5 or 7.5 ul droplets using a multi-channel pipetting device. Five droplets spaced 1 cm apart were placed along the mid-rib of the expanded cucumber leaf with the first droplet being positioned at least 1-cm from the leaf apex. Each treatment was replicated three or four times, depending on the experiment. Two to three hours after applying the treatments when droplets had dried, plants were inoculated with a suspension of sporangia of a Pseudoperonospora cubensis (PSPECU) and incubated as described in the methods for sprayed tests. When symptoms were well developed in untreated check plants, the experiment was assessed visually using a template 2 cm wide and 7 cm long with the long axis centered on the mid-rib of the treated leaf.
# Reduction in percent disease was calculated by subtracting percent disease on plants receiving a mixture of mancozeb plus the specified test substance from percent disease on plants receiving mancozeb alone. The results for examples 5a-5d are shown below in Tables 7-10; the reduction in percent disease was indicated as follows: […]
# [5] = test system: Plasmopara viticola (PLASVI); type: in vivo; settings: for Reduction in percent disease, Formul. I / Reduction in percent disease, Formul. II: PLASVI, Table 21; for Reduction in percent disease, Formul. II: fungicide with Formulation II at 100 ppm
# [6] = fungicide with Formulation I at 100 ppm
# [7] = substance alone 500 ppm, untreated check 95
# [8] = fungicide with Formulation I at 100 ppm, Table 21
# [9] = fungicide with Formulation II at 100 ppm, Table 21
# [10] = fungicide with Formulation I at 100 ppm, Table 18
# [11] = fungicide with Formulation I at 100 ppm, Table 19
smiles,measurement,setting,value
"CCC(C)(NC(=O)c1cc(Cl)c(C)c(Cl)c1)C(=O)CCl (stereo not shown) [Zoxamide, zoxamide]",Percent infection of Pseudoperonospora cubensis on cucumbers,"[1]; zoxamide 1 ppm alone, 7 days after application",28%
same,Percent infection of Pseudoperonospora cubensis on cucumbers,"[1]; zoxamide 5 ppm alone, 7 days after application",16%
same,Percent infection of Pseudoperonospora cubensis on cucumbers,"[1]; zoxamide 25 ppm alone, 7 days after application",16%
same,"effect of Formulation I on the effectiveness of fungicides, PHYTIN",[2]; [6],xx (21-35% reduction in percent disease)
same,"effect of Formulation I on the effectiveness of fungicides, PSPECU",[3],x (key: x: 0-20% reduction in percent disease; xx: 21-35% reduction in percent disease; xxx: 36-50% reduction in percent disease; xxxx: >50% reduction in percent disease)
"CC(C)CC=O [Isovaleraldehyde, isovaleraldehyde]",Percent infection of Pseudoperonospora cubensis on cucumbers,"[1]; isovaleraldehyde 50 ppm (sorbed to PergoPak M) alone, 5 days after application",41%
same,Percent infection of Pseudoperonospora cubensis on cucumbers,"[1]; isovaleraldehyde 100 ppm (sorbed to PergoPak M) alone, 5 days after application",34%
same,Percent infection of Pseudoperonospora cubensis on cucumbers,"[1]; isovaleraldehyde 100 ppm alone, 7 days after application",41%
same,Percent infection of Pseudoperonospora cubensis on cucumbers,"[1]; isovaleraldehyde 500 ppm (sorbed to PergoPak M) alone, 5 days after application",44%
same,Percent infection of Pseudoperonospora cubensis on cucumbers,"[1]; pure isovaleraldehyde 50 ppm alone, 6 days after application",51%
same,Percent infection of Pseudoperonospora cubensis on cucumbers,"[1]; pure isovaleraldehyde 100 ppm alone, 6 days after application",44%
same,Reduction in % Disease,"[4]; substance 100 ppm with mancozeb 200 ppm vs mancozeb alone, Table 9",xx (21-35% reduction in percent disease)
same,Reduction in % Disease,"[4]; substance 200 ppm with mancozeb 50 ppm vs mancozeb alone, cucumber",xxxx (>50% reduction in percent disease)
same,Reduction in % Disease,"[4]; substance 500 ppm with mancozeb 200 ppm vs mancozeb alone, Table 8",xx (21-35% reduction in percent disease)
same,Reduction in % Disease,"[4]; substance 1000 ppm with mancozeb 50 ppm vs mancozeb alone, cucumber",xxx (36-50% reduction in percent disease)
same,% disease at 100 ppm of substance alone,"[4]; substance alone 100 ppm, untreated check 92%, Table 9",86%
same,% disease at 500 ppm of substance alone,"[4]; substance alone 500 ppm, untreated check 91%",93%
same,% disease at 1000 ppm of substance alone,"[4]; substance alone 1000 ppm, untreated check 100%",100%
same,Reduction in percent disease PLASVI,"[5]; substance 500 ppm with mancozeb 6.25 ppm (Dithane DGNT), foliar spray, inoculated 2 to 3 hours after treatment",xxx (36-50% reduction in percent disease)
same,% disease at 500 ppm of substance alone PLASVI,[5]; [7],93%
same,Reduction in percent disease PHYTIN,"[2]; substance 500 ppm with mancozeb 25 ppm (Dithane DGNT), foliar spray, inoculated 2 to 3 hours after treatment",xxx (36-50% reduction in percent disease)
same,% disease at 500 ppm of substance alone PHYTIN,[2]; [7],77%
"CC(C)CC(O)S(=O)(=O)[O-].[Na+] (stereo not shown) [Isovaleraldehyde bisulfite adduct, sodium]",Percent infection of Pseudoperonospora cubensis on cucumbers,"[1]; isovaleraldehyde bisulfite adduct, sodium 100 ppm alone, 7 days",45%
CCCCCCCCCc1c(COC)nc2ncnn2c1N [Compound T],"Reduction in percent disease, Formul. I",[5]; [6],x (0-20% reduction in percent disease)
same,"Reduction in percent disease, Formul. II",[5],x (0-20% reduction in percent disease)
same,"Reduction in percent disease, Formul. I",[2]; [8],x (0-20% reduction in percent disease)
same,"Reduction in percent disease, Formul. II",[2]; [9],x (0-20% reduction in percent disease)
same,"Reduction in percent disease, Formul. I",[3],x (key: x: 0-20% reduction in percent disease; xx: 21-35% reduction in percent disease; xxx: 36-50% reduction in percent disease; xxxx: >50% reduction in percent disease)
same,"Reduction in percent disease, Formul. II",[3],x (key: x: 0-20% reduction in percent disease; xx: 21-35% reduction in percent disease; xxx: 36-50% reduction in percent disease; xxxx: >50% reduction in percent disease)
Cc1c(Br)c2ccc(F)cc2n1S(=O)(=O)c1ncn(S(=O)(=O)N(C)C)n1 [Amisulbrom],"Reduction in percent disease, Formul. I",[5]; [6],xxx (36-50% reduction in percent disease)
same,"Reduction in percent disease, Formul. II",[5],xx (21-35% reduction in percent disease)
same,"effect of Formulation I on the effectiveness of fungicides, PLASVI","[5]; fungicide with Formulation I at 100 ppm, Table 20",x (0-20% reduction in percent disease)
same,"Reduction in percent disease, Formul. I",[2]; [8],x (0-20% reduction in percent disease)
same,"Reduction in percent disease, Formul. II",[2]; [9],x (0-20% reduction in percent disease)
same,"effect of Formulation I on the effectiveness of fungicides, PHYTIN",[2]; [6],x (0-20% reduction in percent disease)
same,"Reduction in percent disease, Formul. I",[3],x (key: x: 0-20% reduction in percent disease; xx: 21-35% reduction in percent disease; xxx: 36-50% reduction in percent disease; xxxx: >50% reduction in percent disease)
same,"Reduction in percent disease, Formul. II",[3],x (key: x: 0-20% reduction in percent disease; xx: 21-35% reduction in percent disease; xxx: 36-50% reduction in percent disease; xxxx: >50% reduction in percent disease)
CCNC(=O)NC(=O)/C(C#N)=N/OC [Cymoxanil],Reduction in percent disease PLASVI,[5]; [10],x (0-20% reduction in percent disease)
same,Reduction in percent disease PHYTIN,[2]; [10],xx (21-35% reduction in percent disease)
same,Reduction in percent disease PSPECU,[3],x (key: x: 0-20% reduction in percent disease; xx: 21-35% reduction in percent disease; xxx: 36-50% reduction in percent disease; xxxx: >50% reduction in percent disease)
CO/C=C(/C(=O)OC)c1ccccc1COc1cccc(C(F)(F)F)n1 [Picoxystrobin],Reduction in percent disease PLASVI,[5]; [10],xxx (36-50% reduction in percent disease)
same,"Reduction in percent disease, Formul. II","[2]; fungicide with Formulation II at 100 ppm of attractant derivative, Table 22",x (0-20% reduction in percent disease)
same,Reduction in percent disease PHYTIN,[2]; [10],x (0-20% reduction in percent disease)
same,"Reduction in percent disease, Formul. II",[3],x (key: x: 0-20% reduction in percent disease; xx: 21-35% reduction in percent disease; xxx: 36-50% reduction in percent disease; xxxx: >50% reduction in percent disease)
COc1ccc(C(=CC(=O)N2CCOCC2)c2ccc(Cl)cc2)cc1OC [Dimethomorph],Reduction in percent disease PLASVI,[5]; [11],xx (21-35% reduction in percent disease)
same,Reduction in percent disease PHYTIN,[2]; [11],x (0-20% reduction in percent disease)
same,Reduction in percent disease PSPECU,[3],x (key: x: 0-20% reduction in percent disease; xx: 21-35% reduction in percent disease; xxx: 36-50% reduction in percent disease; xxxx: >50% reduction in percent disease)
Cc1ccc(C(C)NC(=O)[C@@H](NC(=O)OC(C)C)C(C)C)cc1 (stereo partly shown) [Iprovalicarb],Reduction in percent disease PLASVI,[5]; [11],xx (21-35% reduction in percent disease)
same,Reduction in percent disease PHYTIN,[2]; [11],x (0-20% reduction in percent disease)
same,Reduction in percent disease PSPECU,[3],x (key: x: 0-20% reduction in percent disease; xx: 21-35% reduction in percent disease; xxx: 36-50% reduction in percent disease; xxxx: >50% reduction in percent disease)
"CCNc1nc(CC)c(C(=O)NC(C#N)c2cccs2)s1 (stereo not shown) [Ethaboxam, reference compound]","Reduction in percent disease, Formul. I",[5]; [6],x (0-20% reduction in percent disease)
same,"Reduction in percent disease, Formul. II",[5],x (0-20% reduction in percent disease)
same,Reduction in percent disease PLASVI,[5]; [11],x (0-20% reduction in percent disease)
same,Reduction in percent disease PHYTIN,[2]; [11],x (0-20% reduction in percent disease)
same,"Reduction in percent disease, Formul. II",[3],x (key: x: 0-20% reduction in percent disease; xx: 21-35% reduction in percent disease; xxx: 36-50% reduction in percent disease; xxxx: >50% reduction in percent disease)
